Source: US20240376154A1, “BIS-INTERCALATING PEPTIDES, CONJUGATES AND METHODS OF USE” (ZYMEWORKS BC INC., priority 2023, published 2024)

Key:
[1] = test system: tumour cells (at least 4 of a panel of ovarian, breast, lung, pancreatic, placenta, colon cell lines); assay: In vitro cytotoxicity (cell proliferation, CellTiter-Glo), average over tumour cell line panel; format: cell-based; settings: average pIC50 on all cell lines tested; 5 nights incubation; CellTiter-Glo
Experimental: The ability of representative compounds of Formula I to inhibit proliferation of tumour cells in vitro was evaluated in at least 4 of the following cell lines: OVCAR-3 (ovarian, ATCC), SKOV-3 (ovarian, ATCC), IGROV-1 (ovarian, national research council of Canada (NRC)), OV-90 (ovarian, ATCC), OVKATE (Ovarian, Japanese Collection of Research Bioresources (JCRB) (JCRB1044)), JIMT-1 (breast, NRC), SK-BR-3 (breast, ATCC), T-47D (breast, ATCC), ZR-75-1 (breast, ATCC), MDA-MB-468 (breast, AddexBio), BT-20 (breast, ATCC), BT-474 (breast, NRC), MDA-MB-175 (breast, AddexBio), A549 (lung, collaborator), NCI-H226 (lung, NRC), NCI-H661 (lung, NRC), NCI-H1573 (lung, ATCC). NCI-H1563 (lung, ATCC), H358 (lung, collaborator), EBC-1 (lung, Xenotech), H1299 (lung, NRC), NCI-H292 (lung, ATCC), HCC817 (lung, ATCC), NCI-H441 (lung, ATCC), MIA-PaCa-2 (pancreatic, ATCC), BxPC-3 (pancreatic, ATCC), Panc-1 (pancreatic, ATCC), AsPC-1 (pancreatic, ATCC), JEG-3 (placenta, AddexBio), HT-29 (colon, ATCC).
Cells were cultured per vendor instructions and in log-phase growth were detached by brief incubation in 0.05% trypsin, then resuspended in respective culturing media at 20,000 cells/mL (except for ZR-75 cells, which were resuspended at 10,000 cells/mL). 50 μL/well (˜1000 cells/well) were transferred to sterile tissue culture (TC)-treated 384-well plates (ThermoFisher Scientific, Catalogue #164610) and incubated overnight at 37° C. with 5% CO2 to allow the cells to adhere to the plate surface. The next day, in a sterile, V-bottom, 96-well plate, test articles were titrated 1:3 in complete growth medium, creating a 10-point dose response titration with compounds at 3.5-times the desired final concentration. 20 μL from each dilution were added to the 384-well plate containing the seeded cells and these plates were incubated at 37° C. with 5% CO2 for 5 nights. Cell viability was quantified by first incubating with 15 μL/well of CellTiter-Glo® (Promega, Catalogue #G7572) for 30 minutes, then measuring luminescence with a microplate luminometer (BioTek® Synergy™ H1 Microplate Reader). IC50 values were determined by GraphPad Prism (GraphPad Software, San Diego, CA).
The results are presented in Table 7.1 and discussed in Example 7. Table 7.1 presents the results as average pIC50 values. pIC50=−log (IC50), thus, for example, pIC50=9 is equivalent to IC50=1 nM, and pIC50=6 is equivalent to IC50=1 μM.

[2] = Lipophilicity by experimental HPLC retention time; format: physicochemical; settings: HPLC retention time as measure of lipophilicity; C18, 10 to 90% CH3CN/H2O with 0.1% FA over 25 min
Experimental: The ability to kill neighboring cells (i.e. bystander effect) is an important property for ADC payloads. For a payload comprising a compound of Formula I to be capable of bystander killing, membrane permeability (or transport) is required and the ability of compounds of Formula I to cross cell membranes and exert a cytotoxic effect was expected to be heavily influenced by lipophilicity.
Compounds were analyzed using an Agilent 1260 HPLC (Agilent Technologies, Inc., Santa Clara, CA) equipped with a Diode array detector and using a Phenomenex Kinetex EVO C18 150×4.6, 2.6 μm column (Phenomenex, Torrance, CA), eluting with 10 to 90% CH3CN/H2O with 0.1% FA over 25 min.

[3] = amide bond; 32-membered ring

Compound: CC(C)[C@H]1C(=O)NC[C@@H](NC(=O)c2nc3ccccc3cc2O)C(=O)N2CCCC[C@H]2C(=O)NCC(=O)N(C)CC(=O)N(C)[C@@H](c2ccccc2)C(=O)NC[C@@H](NC(=O)c2nc3ccccc3cc2O)C(=O)N2CCCC[C@H]2C(=O)NCC(=O)N(C)CC(=O)N1C [Compound 103, N,N′-((7R,11S,19aS,26R,30S,38aS)-11-isopropyl-12,15,31,34-tetramethyl-6,10,13,16,19,25,29,32,35,38-decaoxo-30-phenylhexatriacontahydro-2H,6H-dipyrido[1,2-a:1′,2′-q][1,4,7,10,13,17,20,23,26,29]decaazacyclodotriacontine-7,26-diyl)bis(3-hydroxyquinoline-2-carboxamide)]
- pIC50 (average) [1]: 7.3
- HPLC [2]: 17.2 min

Compound: CC(C)[C@H]1C(=O)NC[C@@H](NC(=O)c2nc3ccccc3cc2O)C(=O)N2CCCC[C@H]2C(=O)NCC(=O)N(C)CC(=O)N(C)C2(CC2)C(=O)NC[C@@H](NC(=O)c2nc3ccccc3cc2O)C(=O)N2CCCC[C@H]2C(=O)NCC(=O)N(C)CC(=O)N1C [Compound 109, N,N′-((7′R,19a'S,26′R,30'S,38a'S)-30′-isopropyl-12′,15′,31′,34′-tetramethyl-6′,10′,13′,16′,19′,25′,29′,32′,35′,38′-decaoxotetratriacontahydro-2′H,6′H,12′H-spiro[cyclopropane-1,11′-dipyrido[1,2-a:1′,2′-q][1,4,7,10,13,17,20,23,26,29]decaazacyclodotriacontine]-7′,26′-diyl)bis(3-hydroxyquinoline-2-carboxamide)]
- pIC50 (average) [1]: 7.77
- HPLC [2]: 15.4 min

Compound: CC(C)[C@H]1C(=O)NC[C@@H](NC(=O)c2nc3ccccc3cc2O)C(=O)N2CCCC[C@H]2C(=O)NCC(=O)N(C)CC(=O)N(C)C(C)(C)C(=O)NC[C@@H](NC(=O)c2nc3ccccc3cc2O)C(=O)N2CCCC[C@H]2C(=O)NCC(=O)N(C)CC(=O)N1C [Compound 115, N,N′-((7R,19aS,26R,30S,38aS)-30-isopropyl-11,11,12,15,31,34-hexamethyl-6,10,13,16,19,25,29,32,35,38-decaoxohexatriacontahydro-2H,6H-dipyrido[1,2-a:1′,2′-q][1,4,7,10,13,17,20,23,26,29]decaazacyclodotriacontine-7,26-diyl)bis(3-hydroxyquinoline-2-carboxamide)]
- pIC50 (average) [1]: Inactive
- HPLC [2]: 15.8 min

Compound: CC(C)[C@H]1C(=O)NC[C@@H](NC(=O)c2nc3ccccc3cc2O)C(=O)N2CCCC[C@H]2C(=O)NCC(=O)N(C)CC(=O)N(C)C2(CCC2)C(=O)NC[C@@H](NC(=O)c2nc3ccccc3cc2O)C(=O)N2CCCC[C@H]2C(=O)NCC(=O)N(C)CC(=O)N1C [Compound 121, N,N′-((7′R,19a'S,26′R,30'S,38a'S)-30′-isopropyl-12′,15′,31′,34′-tetramethyl-6′,10′,13′,16′,19′,25′,29′,32′,35′,38′-decaoxotetratriacontahydro-2′H,6′H,12′H-spiro[cyclobutane-1,11′-dipyrido[1,2-a:1′,2′-q][1,4,7,10,13,17,20,23,26,29]decaazacyclodotriacontine]-7′,26′-diyl)bis(3-hydroxyquinoline-2-carboxamide)]
- pIC50 (average) [1]: 8.18
- HPLC [2]: 17.0 min

Compound: CC[C@H](C)[C@H]1C(=O)NC[C@@H](NC(=O)c2nc3ccc(Br)cc3cc2O)C(=O)N2CCCC[C@H]2C(=O)NCC(=O)N(C)CC(=O)N(C)[C@@H]([C@@H](C)CC)C(=O)NC[C@@H](NC(=O)c2nc3ccc(Br)cc3cc2O)C(=O)N2CCCC[C@H]2C(=O)NCC(=O)N(C)CC(=O)N1C [Compound 127, N,N′-((7R,11S,19aS,26R,30S,38aS)-11,30-di((S)-sec-butyl)-12,15,31,34-tetramethyl-6,10,13,16,19,25,29,32,35,38-decaoxohexatriacontahydro-2H,6H-dipyrido[1,2-a:1′,2′-q][1,4,7,10,13,17,20,23,26,29]decaazacyclodotriacontine-7,26-diyl)bis(6-bromo-3-hydroxyquinoline-2-carboxamide)]
- pIC50 (average) [1]: 8.7
- HPLC [2]: 21.0 min

Compound: CCN1C(=O)CN(C)C(=O)CNC(=O)[C@@H]2CCCCN2C(=O)[C@H](NC(=O)c2nc3ccccc3cc2O)CNC(=O)[C@H](C(C)C)N(CC)C(=O)CN(C)C(=O)CNC(=O)[C@@H]2CCCCN2C(=O)[C@H](NC(=O)c2nc3ccccc3cc2O)CNC(=O)[C@@H]1C(C)C [Compound 147, N,N′-((7R,11S,19aS,26R,30S,38aS)-12,31-diethyl-11,30-diisopropyl-15,34-dimethyl-6,10,13,16,19,25,29,32,35,38-decaoxohexatriacontahydro-2H,6H-dipyrido[1,2-a:1′,2′-q][1,4,7,10,13,17,20,23,26,29]decaazacyclodotriacontine-7,26-diyl)bis(3-hydroxyquinoline-2-carboxamide)]
- pIC50 (average) [1]: 8.5
- HPLC [2]: 17.9 min

Compound: CN1CC(=O)N2CCCCC[C@H]2C(=O)NC[C@@H](NC(=O)c2nc3ccccc3cc2O)C(=O)N2CCCC[C@H]2C(=O)NCC(=O)N(C)CC(=O)N2CCCCC[C@H]2C(=O)NC[C@@H](NC(=O)c2nc3ccccc3cc2O)C(=O)N2CCCC[C@H]2C(=O)NCC1=O [Compound 157, N,N′-((7R,10aS,23aS,30R,33aS,46aS)-19,42-dimethyl-6,10,17,20,23,29,33,40,43,46-decaoxotetratetracontahydro-6H,29H-bis(azepino) [1,2-j:1′,2′-z]dipyrido[1,2-a:1′,2′-q][1,4,7,10,13,17,20,23,26,29]decaazacyclodotriacontine-7,30-diyl)bis(3-hydroxyquinoline-2-carboxamide)]
- pIC50 (average) [1]: 7.1
- HPLC [2]: 15.8 min

Compound: CN1CC(=O)N(C)[C@@H](C2CCCCC2)C(=O)NC[C@@H](NC(=O)c2nc3ccccc3cc2O)C(=O)N2CCCC[C@H]2C(=O)NCC(=O)N(C)CC(=O)N(C)[C@@H](C2CCCCC2)C(=O)NC[C@@H](NC(=O)c2nc3ccccc3cc2O)C(=O)N2CCCC[C@H]2C(=O)NCC1=O [Compound 162, N,N′-((7R,11S,19aS,26R,30S,38aS)-11,30-dicyclohexyl-12,15,31,34-tetramethyl-6,10,13,16,19,25,29,32,35,38-decaoxohexatriacontahydro-2H,6H-dipyrido[1,2-a:1′,2′-q][1,4,7,10,13,17,20,23,26,29]decaazacyclodotriacontine-7,26-diyl)bis(3-hydroxyquinoline-2-carboxamide)]
- pIC50 (average) [1]: 9.1
- HPLC [2]: 20.7 min

Compound: CC[C@H](C)[C@H]1COC[C@@H](NC(=O)c2nc3ccccc3cc2O)C(=O)N2CCCC[C@H]2C(=O)NCC(=O)N(C)CC(=O)N(C)[C@@H](C(C)C)C(=O)NC[C@@H](NC(=O)c2nc3ccccc3cc2O)C(=O)N2CCCC[C@H]2C(=O)NCC(=O)N(C)CC(=O)N1C [Compound 197, N,N′-((7R,11S,19aS,26R,30S,38aS)-11-((S)-sec-butyl)-30-isopropyl-12,15,31,34-tetramethyl-6,13,16,19,25,29,32,35,38-nonaoxotetratriacontahydro-2H,6H,10H-dipyrido[2,1-b1: 2′,1′-l][1]oxa[4,7,10,13,17,20,23,26,29]nonaazacyclodotriacontine-7,26-diyl)bis(3-hydroxyquinoline-2-carboxamide)]
- pIC50 (average) [1]: 9.4
- HPLC [2]: 19.4 min

Compound: Benzyl tert-butyl ((3aS,7R,13aS,22S,26R,32aS)-22-isopropyl-18,21,37-trimethyl-4,8,14,17,20,23,27,33,36,39-decaoxooctatriacontahydro-1H,10H-dipyrido[1,2-a:1′,2′-q]pyrrolo[1,2-j][1,4,7,10,13,17,20,23,26,29]decaazacyclodotriacontine-7,26-diyl)dicarbamate
- ring closure, isolated yield [3]: 62%
